Experimental data taken from patent US10556860B2, “hTERT modulators and methods of use” (Arizona Board of Regents on Behalf of the University of …, priority 2015, dated 2020).
Entries after “also recorded” stand apart in the source; their conditions may differ.

Key:
[1] = tested on: G124/125A mutant hTERT G-quadruplex; assay: CD melting (Tm), G124/125A mutant; format: binding, human; conditions: 2 equiv
Protocol: Circular dichroism. Oligomers of WT, G124A, G124/125A, G138/139A and G146A were synthesized and HPSF-purified by MGW Operon, Inc. For CD analysis, oligomers (5 μM) in a buffer containing 10 mM Tris-HCl (pH 7.5) and 140 mM KCl were annealed. For the CD analysis of the complex of oligomers and compounds, oligomers (5 μM) in a buffer containing 10 mM Tris-HCl (pH 7.5) and 5 mM KCl for GTC365 or 1 mM KCl for BRACO-19 were annealed. Oligomers and GTC365 or BRACO-19 were incubated overnight at room temperature. For the full-length of C-rich strand, the oligomer in a buffer of 10 mM Na cacodylate (pH 6.6) was annealed and then incubated with GTC365 overnight. CD analysis was conducted on a Jasco 810 spectropolarimeter (Jasco, Easton, Md.) using a quartz cell with 1 mm of path length, 1 nm of band width, and 1 s of response time for spectra at 20° C. Melting curves for the determination of Tm were obtained by recording ellipticity at 262 nm with increasing temperatures from 25° C. to 95° C. at a rate of 1.6° C./min. Tm of the C-rich strand with GTC365 was obtained from the CD signal at 286 nm within 10-60° C.
CD and DMS footprinting analyses were conducted to characterize the binding of GTC365 and BRACO-19 to the 5-12 G-quadruplex. […] To verify the effects of compounds on the thermal stability of the WT and the mutant G-quadruplexes, Tms were determined by CD. […]

G146A 5-12 G-quadruplex = assay: CD kinetics, temperature-jump, G146A; format: biochemical, human; conditions: 2 equiv
Protocol: FIGS. 10A and 10B are a set of graphs showing (A) comparison of kinetics of initial folding rate of the WT 5-12 G-quadruplex with GTC365 and BRACO-19 by the temperature-jump method. (B) Enhanced initial folding rate of the 5-12 G-quadruplexes carrying different hTERT mutants by GTC365. The time-course CD signal of preheated oligo with compound or DMSO in a buffer containing 10 mM Tris-HCl (pH 7.5) and 5 mM KCl was monitored at 262 nm and 25° C.
For the kinetics analysis using the temperature-jump method, theoligo in a buffer containing 10 mM Tris-HCl (pH 7.5) was heated forl min at 95° C., and then a mixture of KCl and compound was addedand incubated for 1 min. Meanwhile, the CD cuvette was also heatedat 95° C. As soon as the sample in the CD cuvette at the hightemperature was placed in the CD chamber, a time-dependent CDsignal at 262 nm was recorded immediately. The initial folding ratewas determined by one-phase association curve fitting (eq 1) of thekinetics curve using GraphPad Prism 5: Y=Y0+(Plateau−Y0)*(1−e^−kx) (1) where Y is the CD signal at any time point x, Y0 is the Y value whentime (x) is zero, plateau is the Y value at infinite time, and k is the rateconstant.
To evaluate the comparative effects of GTC365 relative to BRACO-19 on the cooperative folding process, we carried out two different experiments. […]

BAX/BCL2 mRNA ratio = assay: BAX/BCL2 ratio in MCF7 cells; format: cell-based, human; conditions: 0.5-1 μM, 72 h, relative to DMSO
Protocol: FIG. 11 is a graph showingincrease of BAX/BCL2 ratios by GTC365 in mRNA levels. MCF7 cells were treated with GTC365 for 72 h and then subjected to qPCR and immunoblot analysis. The relative ratio of BAX/BCL2 was determined compared with a DMSO-treated sample.
Indeed at 0.5-1 μM, the BAX/BCL2 ratio was increased by over 2-fold and the capase-3 activity was increased by 47% (FIGS. 11 and 12).

[2] = tested on: normal human melanocytes (NHM-002); assay: Viability of normal human melanocytes; format: cell-based; conditions: 1.25, 2.5 and 5 μM, 72 h
Protocol: FIGS. 13A-13C are a set of graphs showingselective reduction in viability (A) and hTERT expression (B) in melanoma cells carrying hTERT core promotor mutations. NHM-002 (normal human melanocytes) and a G124A mutant cell line were treated with vehicle, 1.25, 2.5, and 5 μM GTC365 for 72 h. Viability was reduced in hTERT mutant melanoma cells by 50% (left). […] (C) Differential response to GTC365 in WT and promoter mutant cell lines.
Next, to assess the selectivity of GTC365 for hTERT-dependent cancer cells relative to normal precursorcells, we compared the effects of a range of […] on viability at 72 h in normal humanmelanocytes (NHM-002) relative to those of UACC-903, aG124A mutant (FIG. 13A). […] To confirm that the reduction in cell viability was aresult of hTERT downregulation, we performed reverse transcription and qPCR to measure the mRNA level of hTERT expression in cells treated with DMSO or 5 μMGTC365. hTERT expression was reduced by 41% in themelanoma cell line after 72 h but was undetectable in normalmelanocytes, even in the absence of GTC365 (FIG. 13B). Finally, tobroadly assess the selectivity of GTC365 for hTERT promotermutant versus WT cells, we conducted a 6-point 72 h MTSproliferation assay to determine EC50s in 14 additional melanoma cell lines with characterized TERT promoter status([…]) (FIG. 13C). […]

With `N=C(N)NCCCS(=O)(=O)Nc1ccc(Nc2c3ccccc3nc3cc([N+](=O)[O-])ccc23)cc1` [GTC365] the “Tm more increased compared to the WT” value [1] was 6-7 °C, the “increase of initial folding rate” value (G146A 5-12 G-quadruplex) was 0.054 s⁻¹ and the “increase of BAX/BCL2 ratio” value (BAX/BCL2 mRNA ratio) was “over 2 fold”. The viability change [2] was “minimal viability change; also recorded: minimal reduction”.
